# Tests used:
# Assay in all cases: relative viability (nuclei count vs DMSO), 5 days (fraction); higher = more cells survive
# JZL-184 + Crizotinib = compound: C1CN(CCC1C(C2=CC3=C(C=C2)OCO3)(C4=CC5=C(C=C4)OCO5)O)C(=O)OC6=CC=C(C=C6)[N+](=O)[O-] [JZL-184] + C[C@@H](Oc1cc(-c2cnn(C3CCNCC3)c2)cnc1N)c1c(Cl)ccc(F)c1Cl [Crizotinib] (partner 1 µM)
# In short: (§1)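 One day after seeding in 1536-well plates, lung cancer cell lines were dosed by pin tool. Dosing was either single-drug or a fixed anchor-drug dose plus five library-drug doses (not always all listed) in √10 steps. After 5 days, nuclei were stained in one fix-and-stain step and counted on 4× images, and relative viability is the nuclei count of treated wells over that of vehicle wells, given as the median of duplicate plates.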
# JZL-184 + Pictilisib = compound: C1CN(CCC1C(C2=CC3=C(C=C2)OCO3)(C4=CC5=C(C=C4)OCO5)O)C(=O)OC6=CC=C(C=C6)[N+](=O)[O-] [JZL-184] + CS(=O)(=O)N1CCN(Cc2cc3nc(-c4cccc5[nH]ncc45)nc(N4CCOCC4)c3s2)CC1 [Pictilisib] (partner 1 µM)
# In short: as §1
# JZL-184 + Alpelisib = compound: C1CN(CCC1C(C2=CC3=C(C=C2)OCO3)(C4=CC5=C(C=C4)OCO5)O)C(=O)OC6=CC=C(C=C6)[N+](=O)[O-] [JZL-184] + Cc1nc(NC(=O)N2CCC[C@H]2C(N)=O)sc1-c1ccnc(C(C)(C)C(F)(F)F)c1 [Alpelisib] (partner 2 µM)
# In short: as §1
# JZL-184 + Olaparib = compound: C1CN(CCC1C(C2=CC3=C(C=C2)OCO3)(C4=CC5=C(C=C4)OCO5)O)C(=O)OC6=CC=C(C=C6)[N+](=O)[O-] [JZL-184] + O=C(c1cc(Cc2n[nH]c(=O)c3ccccc23)ccc1F)N1CCN(C(=O)C2CC2)CC1 [Olaparib] (partner 8 µM)
# In short: as §1
# JZL-184 + Linsitinib = compound: C1CN(CCC1C(C2=CC3=C(C=C2)OCO3)(C4=CC5=C(C=C4)OCO5)O)C(=O)OC6=CC=C(C=C6)[N+](=O)[O-] [JZL-184] + C[C@]1(O)C[C@@H](c2nc(-c3ccc4ccc(-c5ccccc5)nc4c3)c3c(N)nccn32)C1 [Linsitinib] (partner 1 µM)
# In short: as §1
# JZL-184 + Lapatinib = compound: C1CN(CCC1C(C2=CC3=C(C=C2)OCO3)(C4=CC5=C(C=C4)OCO5)O)C(=O)OC6=CC=C(C=C6)[N+](=O)[O-] [JZL-184] + CS(=O)(=O)CCNCc1ccc(-c2ccc3ncnc(Nc4ccc(OCc5cccc(F)c5)c(Cl)c4)c3c2)o1 [Lapatinib] (partner 2 µM)
# In short: as §1
# JZL-184 + Bortezomib = compound: C1CN(CCC1C(C2=CC3=C(C=C2)OCO3)(C4=CC5=C(C=C4)OCO5)O)C(=O)OC6=CC=C(C=C6)[N+](=O)[O-] [JZL-184] + CC(C)C[C@H](NC(=O)[C@H](Cc1ccccc1)NC(=O)c1cnccn1)B(O)O [Bortezomib] (partner 0.002 µM)
# In short: as §1
# JZL-184 + Foretinib = compound: C1CN(CCC1C(C2=CC3=C(C=C2)OCO3)(C4=CC5=C(C=C4)OCO5)O)C(=O)OC6=CC=C(C=C6)[N+](=O)[O-] [JZL-184] + COc1cc2c(Oc3ccc(NC(=O)C4(C(=O)Nc5ccc(F)cc5)CC4)cc3F)ccnc2cc1OCCCN1CCOCC1 [Foretinib] (partner 0.25 µM)
# In short: as §1
# JZL-184 + Navitoclax = compound: C1CN(CCC1C(C2=CC3=C(C=C2)OCO3)(C4=CC5=C(C=C4)OCO5)O)C(=O)OC6=CC=C(C=C6)[N+](=O)[O-] [JZL-184] + CC1(C)CCC(c2ccc(Cl)cc2)=C(CN2CCN(c3ccc(C(=O)NS(=O)(=O)c4ccc(N[C@H](CCN5CCOCC5)CSc5ccccc5)c(S(=O)(=O)C(F)(F)F)c4)cc3)CC2)C1 [Navitoclax] (partner 0.5 µM)
# In short: as §1
# JZL-184 = compound: C1CN(CCC1C(C2=CC3=C(C=C2)OCO3)(C4=CC5=C(C=C4)OCO5)O)C(=O)OC6=CC=C(C=C6)[N+](=O)[O-] [JZL-184]
# In short: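 Five library-drug doses, separated by factors of √10, were pinned into 1536-well plates holding lung cancer cell lines after an overnight stay at 37 °C. Cells were fixed, permeabilised and Hoechst-stained in one step after 5 days without medium change, then imaged at 4×. Viability compares treated-well with vehicle-well nuclei, counted in MetaXpress, as a median across plates. Passing plates had control CV below 25% and at least one doubling.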
Cell Line,relative viability (JZL-184 + Crizotinib; first compound 0.04 µM),relative viability (JZL-184 + Crizotinib; first compound 0.4 µM),relative viability (JZL-184 + Crizotinib; first compound 1.265 µM),relative viability (JZL-184 + Crizotinib; first compound 4 µM),relative viability (JZL-184 + Pictilisib; first compound 0.04 µM),relative viability (JZL-184 + Pictilisib; first compound 0.4 µM),relative viability (JZL-184 + Pictilisib; first compound 1.265 µM),relative viability (JZL-184 + Pictilisib; first compound 4 µM),relative viability (JZL-184 + Alpelisib; first compound 0.04 µM),relative viability (JZL-184 + Alpelisib; first compound 0.4 µM),relative viability (JZL-184 + Alpelisib; first compound 1.265 µM),relative viability (JZL-184 + Alpelisib; first compound 4 µM),relative viability (JZL-184 + Olaparib; first compound 0.04 µM),relative viability (JZL-184 + Olaparib; first compound 0.4 µM),relative viability (JZL-184 + Olaparib; first compound 1.265 µM),relative viability (JZL-184 + Olaparib; first compound 4 µM),relative viability (JZL-184 + Linsitinib; first compound 0.04 µM),relative viability (JZL-184 + Linsitinib; first compound 0.4 µM),relative viability (JZL-184 + Linsitinib; first compound 1.265 µM),relative viability (JZL-184 + Linsitinib; first compound 4 µM),relative viability (JZL-184 + Lapatinib; first compound 0.04 µM),relative viability (JZL-184 + Lapatinib; first compound 0.4 µM),relative viability (JZL-184 + Lapatinib; first compound 1.265 µM),relative viability (JZL-184 + Lapatinib; first compound 4 µM),relative viability (JZL-184 + Bortezomib; first compound 0.04 µM),relative viability (JZL-184 + Bortezomib; first compound 0.4 µM),relative viability (JZL-184 + Bortezomib; first compound 1.265 µM),relative viability (JZL-184 + Bortezomib; first compound 4 µM),relative viability (JZL-184 + Foretinib; first compound 0.04 µM),relative viability (JZL-184 + Foretinib; first compound 0.4 µM),relative viability (JZL-184 + Foretinib; first compound 1.265 µM),relative viability (JZL-184 + Foretinib; first compound 4 µM),relative viability (JZL-184 + Navitoclax; first compound 0.04 µM),relative viability (JZL-184 + Navitoclax; first compound 0.4 µM),relative viability (JZL-184 + Navitoclax; first compound 1.265 µM),relative viability (JZL-184 + Navitoclax; first compound 4 µM),relative viability (JZL-184; 0.04 µM),relative viability (JZL-184; 0.4 µM),relative viability (JZL-184; 1.265 µM),relative viability (JZL-184; 4 µM)
Calu-6,1.08,0.709,0.776,0.784,0.993,0.865,1,0.91,1.17,0.984,0.98,0.886,0.565,0.495,0.534,0.623,0.984,0.95,0.985,0.906,1.14,1.04,1.02,1.1,1.11,0.925,1,1.06,0.946,0.83,0.887,0.855,0.845,0.807,0.852,0.798,1.05,0.981,1.01,0.971
EBC-1,0.21,0.189,0.195,0.193,0.347,0.287,0.506,0.364,0.982,0.795,0.802,0.754,0.655,0.744,0.671,0.666,0.971,0.848,0.929,0.832,0.176,0.239,0.204,0.209,0.595,0.514,0.558,0.455,0.101,0.0992,0.0837,0.106,0.442,0.427,0.45,0.342,1.06,0.992,0.995,1.03

# Source: the supplement of paper PMC10307832
